The pEC50 is the negative decadic logarithm of the EC50, by convention in mol/L. Low values mean a large EC50, high ones a small EC50.

pEC50: −log10 of the molar value.

The target of this assay is AMPK. As to the kind of experiment: AMPK activation, enzyme-linked immunosorbent assay. In kind it is biochemical. As to conditions: EC50 for AMPK activation, ELISA. In a few lines:
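Compounds were tested for their capacity to activate the kinase using standard, commercially available kit reagents and procedures.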
A general note: ELISA stands for enzyme-linked immunosorbent assay.
As to `COc1ccc(OC2CCN(C(=O)c3ccc(C(=O)NC4CCN(Cc5ccc(C#N)cc5)CC4)cn3)CC2)c(NC(=O)CCOCCOCCOCCOCCNC(=O)CCCC[C@@H]2SC[C@@H]3NC(=O)N[C@@H]32)c1` [Compound 394, N-(1-(4-cyanobenzyl)piperidin-4-yl)-6-(4-(4-methoxy-2-(17-oxo-21-((3aS,4S,6aR)-2-oxohexahydro-1H-thieno[3,4-d]imidazol-4-yl)-4,7,10,13-tetraoxa-16-azahenicosanamido)phenoxy)piperidine-1-carbonyl)nicotinamide], the pEC50 was less than 5.00.

With `CC(=O)c1ccc(OC2CCN(C(=O)c3ccc(C(=O)Nc4ccc(Oc5ccc(F)cc5)nc4)cn3)CC2)cc1` [Compound 395, 6-(4-(4-acetylphenoxy)piperidine-1-carbonyl)-N-(6-(4-fluorophenoxy)pyridin-3-yl)nicotinamide], the pEC50 was more than 6.30.

`CS(=O)(=O)c1ccc(OC2CCN(C(=O)c3ccc(C(=O)NC4CCN(Cc5ccc(F)cc5)CC4)cn3)CC2)cc1` [Compound 396, N-(1-(4-fluorobenzyl)piperidin-4-yl)-6-(4-(4-(methylsulfonyl)phenoxy)piperidine-1-carbonyl)nicotinamide] gave a pEC50 of 5.30 to 6.00.

Consider `CS(=O)(=O)c1ccc(OC2CCN(C(=O)c3ccc(C(=O)NC4CCN(Cc5ccc(C#N)cc5)CC4)cn3)CC2)cc1` [Compound 397, N-(1-(4-cyanobenzyl)piperidin-4-yl)-6-(4-(4-(methylsulfonyl)phenoxy)piperidine-1-carbonyl)nicotinamide], for which the negative logarithm of the EC50 (pEC50) is more than 6.30.

With `CS(=O)(=O)c1ccc(OC2CCN(C(=O)c3ccc(C(=O)NC4CCC(Oc5ccc(C#N)cc5)CC4)cn3)CC2)cc1` (centres unmarked) [Compound 398, N-(4-(4-cyanophenoxy)cyclohexyl)-6-(4-(4-(methylsulfonyl)phenoxy)piperidine-1-carbonyl)nicotinamide], the pEC50 is more than 6.30.

In turn, `CS(=O)(=O)c1ccc(OC2CCN(C(=O)c3ccc(C(=O)NC4CCN(Cc5ccc(C#N)cc5)CC4)nn3)CC2)cc1` [Compound 399, N-(1-(4-cyanobenzyl)piperidin-4-yl)-6-(4-(4-(methylsulfonyl)phenoxy)piperidine-1-carbonyl)pyridazine-3-carboxamide] showed a pEC50 of more than 6.30.

As to `COc1ccc(C(=O)C2CCN(C(=O)c3ccc(C(=O)NC4CCN(Cc5ccc(N)cc5)CC4)cn3)CC2)cc1` [Compound 400, N-(1-(4-aminobenzyl)piperidin-4-yl)-6-(4-(4-methoxybenzoyl)piperidine-1-carbonyl)nicotinamide], the pEC50 was 5.30 to 6.00.

The compound `COc1ccc(C(=O)C2CCN(C(=O)c3ccc(C(=O)NC4CCN(Cc5ccc(NC(C)=O)cc5)CC4)cn3)CC2)cc1` [Compound 401, N-(1-(4-acetamidobenzyl)piperidin-4-yl)-6-(4-(4-methoxybenzoyl)piperidine-1-carbonyl)nicotinamide] had a negative-log EC50 (pEC50) of 5.30 to 6.00.

Regarding `COc1ccc(C(=O)C2CCN(C(=O)c3ccc(C(=O)NC4CCN(Cc5ccc(NC(=O)CCOCCOCCOCCNC(=O)CCCC[C@@H]6SC[C@@H]7NC(=O)N[C@@H]76)cc5)CC4)nc3)CC2)cc1` [Compound 403, 5-(4-(4-methoxybenzoyl)piperidine-1-carbonyl)-N-(1-(4-(14-oxo-18-((3aS,4S,6aR)-2-oxohexahydro-1H-thieno[3,4-d]imidazol-4-yl)-4,7,10-trioxa-13-azaoctadecanamido)benzyl)piperidin-4-yl)picolinamide], the pEC50 is less than 5.00.

Regarding `O=C(NC1CCN(c2ccc(F)cc2)CC1)c1ccc(C(=O)N2CCN(Cc3ccc(F)cc3)CC2)nc1` [Compound 404, 6-(4-(4-fluorobenzyl)piperazine-1-carbonyl)-N-(1-(4-fluorophenyl)piperidin-4-yl)nicotinamide], the pEC50 is 5.30 to 6.00.

Take `COc1ccc(N2CCC(NC(=O)c3ccc(C(=O)N4CCN(Cc5ccc(F)cc5)CC4)nc3)CC2)cc1` [Compound 405, 6-(4-(4-fluorobenzyl)piperazine-1-carbonyl)-N-(1-(4-methoxyphenyl)piperidin-4-yl)nicotinamide]: the pEC50 was more than 6.30.

Values taken from patent US9663496B2, “AMPK-activating heterocyclic compounds and methods for using the same” (Rigel Pharmaceuticals, Inc., priority 2010, dated 2017).
